Assay results taken from patent US6737383B1, “Herbicidal oxadiazolidines” (priority 1999, dated 2004).

Assays:
[1] = system: sandbur; experiment: Test D sandbur; format: in vivo, Cenchrus echinatus; conditions: Preemergence, 0 to 100 scale
In short: (§1)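 Each weed species is planted in its own pot or compartment; preemergence doses go on the sandy loam surface within a day. The formulation is a surfactant-containing, non-phytotoxic solvent blend. Ratings come from visual comparison with untreated controls 14 to 21 days later, where 100 means complete control.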

[2] = system: bermuda-grass; experiment: Test D bermudagrass; format: in vivo, Cynodon dactylon; conditions: Preemergence, 0 to 100 scale
Source text: (§2) Seeds, tubers, or plant parts of Alexandergrass (Brachiaria plantaginea), bermuda-grass (Cynodon dactylon), common pursiane (Portulaca oleracea), common ragweed (Ambrosia elatior), common groundsel (Senecio vulgaris), dallisgrass (Paspalum dilatatum), goosegrass (Eleusine indica), guineagrass (Panicum maximum), itchgrass (Rottboellia exaltata), Johnson grass (Sorghum halepense), large crabgrass (Digitaria sanguinalis), pitted morningglory (Ipomoea lacunosa), purple nutsedge (Cyperus rotundus), sandbur (Cenchrus echinatus), sourgrass (Trichachne insularis), Spanishneedles (Bidens bipinnata), surinam grass (Brachiaria decumbens) and tall mallow (Malva sylvestris) were planted into greenhouse pots of flats containing greenhouse planting medium. Plant species were grown in separate pots or individual compartments. Preemergence applications were made within one day of planting the seed or plant part.
(§3) Test chemicals were formulated in a non-phytotoxic solvent mixture which included a surfactant and applied preemergence to the surface of the pot containing seeds in a sandy loam soil. Untreated control pots and treated pots were placed in the greenhouse for growth and visually evaluated for injury 14 to 21 days after herbicide application. Plant response ratings, summarized in Table C, are based on a 0 to 100 scale where 0 is no injury and 100 is complete control. A dash (−) response means no test result.

[3] = system: goosegrass; experiment: Test D goosegrass; format: in vivo, Eleusine indica; conditions: Preemergence, 0 to 100 scale
Source text: as §2, §3

[4] = system: Johnson grass; experiment: Test D Johnson grass; format: in vivo, Sorghum halepense; conditions: Preemergence, 0 to 100 scale
In short: as §1

[5] = system: itchgrass; experiment: Test D itchgrass; format: in vivo, Rottboellia exaltata; conditions: Preemergence, 0 to 100 scale
In short: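 Scoring used a 0–100 visual injury scale, with 0 meaning no effect and 100 complete control, assessed 14–21 days after application alongside untreated pots. Preemergence treatments went onto sandy loam surfaces of separately potted seeds within a day of sowing.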

[6] = system: purple nutsedge; experiment: Test D purple nutsedge; format: in vivo, Cyperus rotundus; conditions: Preemergence, 0 to 100 scale
Source text: as §2, §3

[7] = system: common groundsel; experiment: Test D common groundsel; format: in vivo, Senecio vulgaris; conditions: Preemergence, 0 to 100 scale
In short: as §1

[8] = system: common pursiane; experiment: Test D common purslane; format: in vivo, Portulaca oleracea
In short: as §1

[9] = system: Spanishneedles; experiment: Test D Spanishneedles; format: in vivo, Bidens bipinnata; conditions: Preemergence, 0 to 100 scale
Source text: as §2, §3

[10] = Rate 32 g/ha, 0 no injury, 100 complete control
[11] = Rate 64 g/ha, 0 no injury, 100 complete control
[12] = Rate 125 g/ha, 0 no injury, 100 complete control
[13] = Rate 32 g/ha; Preemergence; 0 to 100 scale, 0 no injury, 100 complete control
[14] = Rate 64 g/ha, Preemergence; 0 to 100 scale, 0 no injury, 100 complete control
[15] = Rate 125 g/ha, Preemergence; 0 to 100 scale, 0 no injury, 100 complete control
[16] = Rate 250 g/ha; Preemergence; 0 to 100 scale
[17] = Rate 16 g/ha, 0 no injury, 100 complete control

Cc1cccc(C)c1-n1c(=O)on(C(=O)N(c2ccc(F)cc2F)C(C)C)c1=O [Compound 28]
Plant response rating, Sandbur [1, 10]: 0
Sandbur plant response rating [1, 11]: 0
Sandbur plant response rating [1, 12]: 0
Plant response rating, Sandbur ([1]; Rate 250 g/ha): 0
Plant response rating, Bermudagrass [2, 10]: 85
Plant response rating, Bermudagrass [2, 11]: 100
Plant response rating, Bermudagrass [2, 12]: 100
Plant response rating, Bermudagrass ([2]; Rate 250 g/ha): 100
Plant response rating, Goosegrass [3, 10]: 0
Plant response rating, Goosegrass [3, 11]: 85
Plant response rating, Goosegrass [3, 12]: 98
Plant response rating, Goosegrass ([3]; Rate 250 g/ha): 100
Plant response rating Johnsongrass [4, 10]: 0
Plant response rating Johnsongrass [4, 11]: 0
Plant response rating Johnsongrass [4, 12]: 0
Plant response rating Johnsongrass ([4]; Rate 250 g/ha): 0
Plant response rating, Itchgrass [5, 10]: 0
Plant response rating, Itchgrass [5, 11]: 20
Plant response rating, Itchgrass [5, 12]: 40
Plant response rating, Itchgrass ([5]; Rate 250 g/ha): 40
Plant response rating, Purple nutsedge [6, 10]: 0
Purple nutsedge plant response rating [6, 11]: 0
Purple nutsedge plant response rating [6, 12]: 0
Plant response rating, Purple nutsedge ([6]; Rate 250 g/ha): 0
Plant response rating, Com. groundsel [7, 10]: 0
Plant response rating, Com. groundsel [7, 11]: 0
Plant response rating, Com. groundsel [7, 12]: 0
Plant response rating, Com. groundsel ([7]; Rate 250 g/ha): 0
Plant response rating, C. purslane [8, 13]: 0
Plant response rating, C. purslane [8, 14]: 0
Plant response rating, C. purslane [8, 15]: 0
Plant response rating, C. purslane [8, 16]: 0
Plant response rating, Spanishneedles [9, 10]: 0
Spanishneedles plant response rating [9, 11]: 60
Spanishneedles plant response rating [9, 12]: 75

C=C(C)Cn1c(=O)on(C(=O)N(c2ccc(F)cc2)C(C)C)c1=O [Compound 139]
Sandbur plant response rating [1, 11]: 40
Plant response rating, Bermudagrass [2, 11]: 98
Plant response rating, Goosegrass [3, 11]: 98
Plant response rating Johnsongrass [4, 11]: 10
Plant response rating, Itchgrass [5, 11]: 20
Purple nutsedge plant response rating [6, 11]: 0
Plant response rating, Com. groundsel [7, 11]: 0
Plant response rating, C. purslane [8, 14]: 0
Spanishneedles plant response rating [9, 11]: 20

CCn1c(=O)on(C(=O)N(c2ccc(F)cc2)C(C)C)c1=O [Compound 107]
Plant response rating, Sandbur [1, 17]: 30
Plant response rating, Sandbur [1, 10]: 30
Sandbur plant response rating [1, 11]: 65
Sandbur plant response rating [1, 12]: 98
Plant response rating, Sandbur ([1]; Rate 250 g/ha): 100
Plant response rating, Sandbur ([1]; Rate 500 g/ha): 100
Plant response rating, Bermudagrass [2, 17]: 85
Plant response rating, Bermudagrass [2, 10]: 100
Plant response rating, Bermudagrass [2, 11]: 100
Plant response rating, Bermudagrass [2, 12]: 100
Plant response rating, Bermudagrass ([2]; Rate 250 g/ha): 100
Plant response rating, Bermudagrass ([2]; Rate 500 g/ha): 100
Plant response rating, Goosegrass [3, 17]: 85
Plant response rating, Goosegrass [3, 10]: 98
Plant response rating, Goosegrass [3, 11]: 100
Plant response rating, Goosegrass [3, 12]: 100
Plant response rating, Goosegrass ([3]; Rate 250 g/ha): 100
Plant response rating, Goosegrass ([3]; Rate 500 g/ha): 100
Plant response rating Johnsongrass [4, 17]: 20
Plant response rating Johnsongrass [4, 10]: 85
Plant response rating Johnsongrass [4, 11]: 90
Plant response rating Johnsongrass [4, 12]: 90
Plant response rating Johnsongrass ([4]; Rate 250 g/ha): 98
Plant response rating Johnsongrass ([4]; Rate 500 g/ha): 100
Plant response rating, Itchgrass [5, 17]: 40
Plant response rating, Itchgrass [5, 10]: 75
Plant response rating, Itchgrass [5, 11]: 85
Plant response rating, Itchgrass [5, 12]: 98
Plant response rating, Itchgrass ([5]; Rate 250 g/ha): 100
Plant response rating, Itchgrass ([5]; Rate 500 g/ha): 100
Plant response rating, Purple nutsedge [6, 17]: 0
Plant response rating, Purple nutsedge [6, 10]: 0
Purple nutsedge plant response rating [6, 11]: 20
Purple nutsedge plant response rating [6, 12]: 65
Plant response rating, Purple nutsedge ([6]; Rate 250 g/ha): 85
Plant response rating, Purple nutsedge ([6]; Rate 500 g/ha): 85
Plant response rating, Com. groundsel [7, 17]: 40
Plant response rating, Com. groundsel [7, 10]: 75
Plant response rating, Com. groundsel [7, 11]: 98
Plant response rating, Com. groundsel [7, 12]: 100
Plant response rating, Com. groundsel ([7]; Rate 250 g/ha): 100
Plant response rating, Com. groundsel ([7]; Rate 500 g/ha): 100
Plant response rating, C. purslane ([8]; Rate 16 g/ha; Preemergence; 0 to 100 scale, 0 no injury, 100 complete control): 0
Plant response rating, C. purslane [8, 13]: 0
Plant response rating, C. purslane [8, 14]: 0
Plant response rating, C. purslane [8, 15]: 0
Plant response rating, C. purslane [8, 16]: 0
Plant response rating, C. purslane ([8]; Rate 500 g/ha, Preemergence; 0 to 100 scale): 100
Plant response rating, C. purslane ([8]; Rate 500 g/ha; Preemergence; 0 to 100 scale): 0
Plant response rating, Spanishneedles [9, 17]: 0
Plant response rating, Spanishneedles [9, 10]: 0
Spanishneedles plant response rating [9, 11]: 0
Spanishneedles plant response rating [9, 12]: 20
Plant response rating, Spanishneedles ([9]; Rate 500 g/ha): 100
